Among the data in patent US20230192638A1, “POLYPHENOLS DERIVATIVES” (Epirium Bio Inc., priority 2021, published 2023) are activity values, retold here.

For this test, the system named is PGC-1α. Put plainly: Single point PGC-1α assay (in-cell ELISA in differentiated C2C12 myotubes). The format is cell-based. Conditions: Mus musculus, each compound tested at 0.01 nM, DMSO control as 100 %. The procedure: Culture conditions: DMEM containing 25 mM glucose with 10 % FBS supplementation; grown at 37° C. and 5 % CO2.
Assay Conditions: C2C12 cells were cultured in DMEM supplemented in 10 % FBS up to 80 % confluence. The cells were further trypsinized and seeded into a 96 well plate at a density of 5000 cells/well (well volume – 100 µL) (Day 0). Following attachment, the cells were allowed to reach 80-90% confluence in the plate (typically 48 hours post seeding) and further differentiated using DMEM + 2 % Horse Serum (200 µL/well). The media was changed every day or at least every alternate day for 5 days to allow myoblasts to differentiate into myotubes. On day 7 (post seeding), the cells were treated with standards and test compounds for PGC-1α assay.
PGC-1α assay: For the detection of PGC-1α, the cells were incubated with 0.5 µg/ml primary antibody (Merck, WH0010891M3) in PBS-T containing 5 % BSA at 4° C. overnight. The cells were then washed three times with PBS-T for 5 minutes and incubated with 1:1000 dilution secondary antibody (Anti- rabbit IgG, HRP-linked Antibody, Cell Signaling) in PBS-T with 1 % BSA for 1 hour at RT. Cells were washed three times with PBS-T for 5 minutes The cells were incubated with 100 µl TMB substrate solution for 30 minutes and the reaction was stopped with 100 µl of 2N H2SO4. Then the plate was read at 450 nm using ELISA plate reader and absorbance recorded. % activity was calculated using DMSO control as 100 %. (For plate optical density calculations, a background correction was taken at 540 nm). Each compound was tested at a concentration of 0.01 nM.
A general note: In an ELISA, binding on a coated surface is turned into a signal by an enzyme label.

Setting [1] is: average, count 1, read-out: Single point PGC1-Alpha Assay: Average Activity (%).
Setting [2] is: read-out: Single point PGC1-Alpha Assay: Activity (%).

The structures appear in SMILES notation. Like-named read-outs stand apart in the source and are kept apart here.

With `Cc1cc(O)cc(C2Oc3cc(O)cc(O)c3CC2O)c1` (stereo not drawn), the activity at 10 pM by setting is: under setting [1], 109%; under setting [2], 109%.

`Cc1cc(O)cc([C@H]2Oc3cc(O)cc(O)c3C[C@H]2O)c1`: the activity at 10 pM runs as follows: under setting [1], 103%; under setting [2], 103%.

For the compound `Cc1cc(O)cc([C@@H]2Oc3cc(O)cc(O)c3C[C@@H]2O)c1`, the activity at 10 pM reads like this: under setting [1], 114%; under setting [2], 114%.

Take `Oc1cc(O)c2c(c1)O[C@@H](c1ccc(F)c(O)c1)[C@@H](O)C2`: the activity at 10 pM under setting [1] was 104% and the activity at 10 pM under setting [2] was determined as 104%.

Regarding `COc1cc([C@@H]2Oc3cc(O)cc(O)c3C[C@@H]2O)ccc1O`, the activity at 10 pM came to 124% under setting [1] and 124% under setting [2].

Consider `Oc1cc(F)cc([C@@H]2Oc3cc(O)cc(O)c3C[C@@H]2O)c1`, for which the activity at 10 pM runs as follows: under setting [1], 117%; under setting [2], 117%.
